From US20040121410A1, “Pain signaling molecules” (priority 2002, published 2004)
Read-outs that look alike come from different tables or passages of the source. Where a SMILES comes first, the peptide text is derived from it. Where no end group is shown, it is not given here. [ ]: non-standard residue; d: D form. pGlu = O=C1CC[C@@H](C(=O)O)N1

Experiments:
MrgA1 = target: T1, MrgA1 (Mus musculus, UniProt Q91WW5); assay: calcium-mobilization assay (FLEXstation, Fura-2/AM) in HEK-MrgA1 cells; assay type: cell-based
T1 construct: expressed in transfected cells
T1 sequence (Q91WW5 1-304): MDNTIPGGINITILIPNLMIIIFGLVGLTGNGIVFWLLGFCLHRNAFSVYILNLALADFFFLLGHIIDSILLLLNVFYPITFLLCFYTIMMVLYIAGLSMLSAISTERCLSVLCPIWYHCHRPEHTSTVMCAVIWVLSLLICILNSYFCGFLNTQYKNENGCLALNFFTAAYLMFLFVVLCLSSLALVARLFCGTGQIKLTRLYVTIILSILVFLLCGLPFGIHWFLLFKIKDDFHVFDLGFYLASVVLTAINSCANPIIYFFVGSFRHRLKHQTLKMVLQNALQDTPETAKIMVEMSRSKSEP
Description: (§1) To address the questions of the ligand selectivity of the MrgC11 receptor, human embryonic kidney (HEK) 293 cells stably expressing either MrgA1 or MrgC11 were established. Neuropeptides were screened to identify ligands and agonists.
(§2) HEK293 cells were transfected with cDNA encoding the MrgAl-GFP, mNPFF2-GFP or MrgC11-GFP in pcDNA3.1/Zio(+) plasmid (Invitrogen) using the FuGENE6 transfection reagent (Roche Molecular Biomolecules). The transfected cells were selected with 400 μg/ml zeocin in DMEM supplemented with 10% FBS. Each cloned cell was further selected for membrane localization of receptor-GFP fusion protiens.
(§3) The selected cells were maintained in the same medium supplemented with 200 μg/ml zeocin. The stable cell lines were designated HEK-MrgA1, HEK-NPFF2 and HEK-MrgC11.
(§4) To identify putative ligands for MrgC11 and MrgA1 receptors, HEK-MrgC11 or HEKMrgA1 stable cell lines were screened in a calcium-mobilization assay using a fluorescence-imaging plate reader (FLEXstation). Briefly, HEK-MrgA1 or HEK-MrgC11 were plated in 96-black-well plates (Corning) and grown to confluence. After incubation with Fura-2/AM for >20 min, cells were washed and equilibrated for 20 min with HBSS (Hanks' balanced salt solution) assay buffer. The fluorescence emission caused by intracellular calcium mobilization elicited by agonists was determined by using a fluorometric imaging plate reader, Flexstation (Molecular Devices). All peptides were from Phoenix Pharmaceuticals (St. Joseph, Mo.), Bachem, American Peptide (Sunnyvale, Calif.), or Sigma.

MrgC11 = target: T2, MrgC11 (Mus musculus, UniProt Q8CIP3); assay: calcium-mobilization assay (FLEXstation, Fura-2/AM) in HEK-MrgC11 cells; assay type: cell-based; settings: for activation of MrgC11 (in words): calcium response
T2 construct: A full-length MrgC11 cDNA was cloned from the newborn DRG cDNA library; expressed in transfected cells
T2 sequence (Q8CIP3 1-322): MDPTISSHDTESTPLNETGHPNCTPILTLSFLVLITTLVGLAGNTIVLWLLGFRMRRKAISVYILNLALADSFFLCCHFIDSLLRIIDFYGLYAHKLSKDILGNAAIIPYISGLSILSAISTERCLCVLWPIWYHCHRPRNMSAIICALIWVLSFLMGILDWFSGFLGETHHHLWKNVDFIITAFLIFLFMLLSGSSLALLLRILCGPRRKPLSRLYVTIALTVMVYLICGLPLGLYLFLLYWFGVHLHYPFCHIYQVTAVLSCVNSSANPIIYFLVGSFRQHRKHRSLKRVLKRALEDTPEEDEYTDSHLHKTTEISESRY
Description: as §1, §2, §3, §4

[1] = Table 1, HEK-MrgA1 cells, FLEXstation assay, means ± SEM, triplicate, Inactive = no activation detected at concentrations up to 10 mM
[2] = Table 1, HEK-MrgC11 cells, FLEXstation assay, means ± SEM, triplicate, Inactive = no activation detected at concentrations up to 10 mM, read-out: EC50 MrgC11
[3] = Table 2, chirally modified FMRFa peptides, HEK-MrgA1 cells, mean ± SEM, triplicate, read-out: EC50 MrgA1
[4] = Table 2, chirally modified FMRFa peptides, HEK-MrgC11 cells, mean ± SEM, triplicate, read-out: EC50 MrgC11

Compound | EC50 MrgA1 (MrgA1; [1]) | EC50 (MrgC11; [2]) | EC50 (MrgC11) | other results
VGRPEWWMDYQKRY-NH2 [BAM-15-amide] |  | 479 ± 14 nM |  | EC50 (MrgA1; Table 1, HEK-MrgA1 cells, FLEXstation assay, means ± SEM, triplicate, Inactive = no activation detected at concentrations up to 10 mM, read-out: EC50 MrgA1): 8770 nM
CSCC[C@H](NC(=O)[C@@H](N)Cc1ccccc1)C(=O)N[C@@H](CCCNC(=N)N)C(=O)N[C@H](Cc1ccccc1)C(N)=O [F-M-R-(D)Fa] |  |  |  | EC50 MrgC11, nM (MrgC11; Table 2, chirally modified FMRFa peptides, HEK-MrgC11 cells, mean ± SEM, triplicate): Inactive; EC50 (MrgA1; [3]): 643 ± 80 nM
YGGFMRRVGRPEWWMDYQKRYGGFL [BAM3200] |  |  | 300 ± 124 nM | EC50 (MrgA1): > 10000 nM
CC(C)C[C@H](NC(=O)CNC(=O)[C@H](Cc1ccccc1)NC(=O)[C@H](CO)NC(=O)[C@H](CC(N)=O)NC(=O)[C@H](Cc1c[nH]c2ccccc12)NC(=O)[C@H](CC(N)=O)NC(=O)[C@H](Cc1ccc(O)cc1)NC(=O)[C@H](CC(N)=O)NC(=O)[C@@H]1CCCN1C(=O)[C@H](CC(C)C)NC(=O)[C@H](CC(=O)O)NC(=O)[C@@H](N)CCCCN)C(=O)N[C@@H](CCCNC(=N)N)C(=O)N[C@@H](Cc1ccccc1)C(N)=O [Kiss(107-121)] | Inactive | 102 ± 24 nM |  | 
KHEYLRF-NH2 [AF-2] | Inactive |  | 130 ± 24 nM | 
CSCC[C@H](NC(=O)[C@H](N)Cc1ccccc1)C(=O)N[C@@H](CCCNC(=N)N)C(=O)N[C@@H](Cc1ccccc1)C(N)=O [(D)F-M-R-Fa] |  |  |  | EC50 (MrgC11; [4]): 108 ± 1 nM; EC50 (MrgA1; [3]): 882 ± 55 nM
YGGFMRF-NH2 [Met-ENK-RFamide] |  |  | 133 ± 20 nM | EC50 (MrgA1): 5250 nM
IRPKLKWDNQKRYG [Dynnorphin-14] | Inactive |  | 22 ± 1 nM | 
CC(C)C[C@H](NC(=O)[C@@H](N)Cc1ccccc1)C(=O)N[C@@H](Cc1ccccc1)C(=O)N[C@@H](CCC(N)=O)C(=O)N1CCC[C@H]1C(=O)N[C@@H](CCC(N)=O)C(=O)N[C@@H](CCCN=C(N)N)C(=O)N[C@@H](Cc1ccccc1)C(N)=O [NPFF] |  |  | 54 ± 5 nM | EC50 (MrgA1): 2150 nM
N=C(N)NCCC[C@H](N)C(=O)N[C@@H](Cc1ccccc1)C(=O)O [R-F—OH] |  |  |  | EC50 (MrgC11; [4]): 632 ± 124 nM; EC50 MrgA1, nM (MrgA1; Table 2, chirally modified FMRFa peptides, HEK-MrgA1 cells, mean ± SEM, triplicate): Inactive; EC50 MrgA1, nM (MrgA1; Table 2, chirally modified FMRFa peptides, HEK-MrgA1 cells, mean ± SEM, triplicate, listed as RF-OH): not able to activate
CSCC[C@H](NC(=O)[C@@H](NC(=O)[C@@H](N)Cc1ccc(O)cc1)C(C)C)C(=O)NCC(=O)N[C@@H](Cc1c[nH]cn1)C(=O)N[C@@H](Cc1ccccc1)C(=O)N[C@@H](CCCNC(=N)N)C(=O)N[C@@H](Cc1c[nH]c2ccccc12)C(=O)N[C@@H](CC(=O)O)C(=O)N[C@@H](CCCNC(=N)N)C(=O)N[C@@H](Cc1ccccc1)C(N)=O [γ1-MSH] | Inactive | 17 ± 3 nM |  | 
α-MSH |  |  |  | activation of MrgC11 (in words) (MrgC11; HEK-MrgC11 cells): not activated
AGEGLNSQFWSLAAPQRF-NH2 [NPAF] | Inactive |  | 282 ± 30 nM | 
N=C(N)NCCC[C@H](NC(=O)CNC(=O)[C@@H]1CCC(=O)N1)C(=O)N[C@@H](Cc1ccccc1)C(N)=O [AnthoRF-amide] ([pGlu]GRF-NH2) | Inactive | 16 ± 6 nM |  | 
YGGFMRF-OH [Met-Enk-RF] | Inactive |  | 545 ± 19 nM | activation of MrgA1 (in words) (MrgA1; HEK-MrgA1 cells, calcium response): complete loss of activity
CSCC[C@@H](NC(=O)[C@@H](N)Cc1ccccc1)C(=O)N[C@@H](CCCNC(=N)N)C(=O)N[C@@H](Cc1ccccc1)C(N)=O [F-(D)M-R-Fa] |  |  |  | EC50 (MrgC11; [4]): 11 ± 4 nM; EC50 (MrgA1; [3]): 1260 nM
TPDINPAWYTGRGIRPVGRF-NH2 [PrRP-20] | Inactive | 144 ± 18 nM |  | 
β-MSH |  |  |  | activation of MrgC11 (in words) (MrgC11; HEK-MrgC11 cells): not activated

The next lines start with results.

EC50 MrgA1 (MrgA1; [1]) | EC50 (MrgC11; [2]) | Compound | EC50 (MrgC11) | other results
Inactive |  | MPHSFANLPLRF-NH2 [RFRP-1] [listing 1 of 2 here] |  | 
Inactive | 113 ± 5 nM | CC(C)C[C@H](NC(=O)[C@H](CC(N)=O)NC(=O)[C@@H]1CCCN1C(=O)[C@@H](N)C(C)C)C(=O)N1CCC[C@H]1C(=O)N[C@@H](CCC(N)=O)C(=O)N[C@@H](CCCNC(=N)N)C(=O)N[C@@H](Cc1ccccc1)C(N)=O [RFRP-3] |  | 
Inactive | 46 ± 12 nM | SGQSWRPQGRF-NH2 [ACEP-1] |  | 
 | 1240 nM | MPHSFANLPLRF-NH2 [RFRP-1] [listing 2 of 2 here] |  | 
